Earlier results on one compound are cited in patent US7622592B2, “Carbonylamino-benzimidazole derivatives as androgen receptor modulators” (Merck & Co., Inc., priority 2002, dated 2009).

For this data set the following is noted: after 7 years of treatment.

Turning to `NCCCC(O)(P(=O)(O)O)P(=O)(O)O` [alendronate, 4-amino-1-hydroxybutylidene-1,1-bisphosphonic acid], the “increase in spinal BMD” value is on record as 11.
